Measured values reported in article PMC5259778, “Candidate pheromone receptors of codling moth Cydia pomonella respond to pheromones and kairomones” (Scientific Reports, 2017).
Converted amounts (≈) assume the structure as drawn.

Experiments:
[1] = ref Scifinder, 2015; Chemspider; cited from earlier work
CpomOrco + OR3 = target: T1, CpomOrco + OR3 (Cydia pomonella, UniProt H9A5M3); experiment: Calcium imaging of HEK293T cells expressing CpomOrco + OR3; format: cell-based
T1 sequence (H9A5M3 1-426): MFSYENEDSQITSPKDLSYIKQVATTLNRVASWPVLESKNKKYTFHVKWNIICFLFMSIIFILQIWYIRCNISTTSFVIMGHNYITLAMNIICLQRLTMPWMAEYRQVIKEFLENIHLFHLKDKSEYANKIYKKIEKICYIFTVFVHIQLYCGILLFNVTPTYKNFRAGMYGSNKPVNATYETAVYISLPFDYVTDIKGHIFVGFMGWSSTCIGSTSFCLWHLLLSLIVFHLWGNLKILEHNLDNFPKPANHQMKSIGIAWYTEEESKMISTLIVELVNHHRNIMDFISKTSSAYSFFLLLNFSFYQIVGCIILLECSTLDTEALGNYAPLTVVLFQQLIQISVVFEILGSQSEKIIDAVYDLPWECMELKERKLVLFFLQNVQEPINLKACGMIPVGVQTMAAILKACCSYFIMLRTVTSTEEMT
T1 sequence (H9A5M2 1-473 partner): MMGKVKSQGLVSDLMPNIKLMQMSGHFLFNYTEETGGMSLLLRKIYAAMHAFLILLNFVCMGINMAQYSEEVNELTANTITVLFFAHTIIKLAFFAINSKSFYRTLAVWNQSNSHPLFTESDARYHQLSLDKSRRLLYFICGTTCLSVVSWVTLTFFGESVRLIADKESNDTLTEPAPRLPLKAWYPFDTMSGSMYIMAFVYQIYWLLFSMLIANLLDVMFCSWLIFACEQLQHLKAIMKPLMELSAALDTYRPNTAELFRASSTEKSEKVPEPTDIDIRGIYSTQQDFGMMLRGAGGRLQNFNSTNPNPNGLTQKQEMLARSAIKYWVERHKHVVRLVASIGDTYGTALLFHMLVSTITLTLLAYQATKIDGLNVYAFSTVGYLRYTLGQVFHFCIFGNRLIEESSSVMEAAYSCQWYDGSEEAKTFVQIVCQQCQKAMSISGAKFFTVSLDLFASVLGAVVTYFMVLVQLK
Experimental: HEK293T cells were grown in HEK cell media [Dulbecco’s modified Eagle’s medium containing 10% fetal bovine serum (MP Biomedicals, Solon, OH, USA), 2.0 mM L-glutamine, and 100 μg/mL Penicillin/Streptomycin (Invitrogen)] at 37 °C and 5% CO2. To test transient expression of CpomORs for calcium imaging or patch-clamp recording experiments, 35-mm petri dishes containing semi-confluent HEK293T cells were transiently transfected. To transfect cells with CpomOrco, we used 1.0 μg of pcDNA5/TO/CpomOrco DNA. In order to promote expression of the OR[51], we used double aliquots for pcDNA5/TO/CpomOR DNAs (2.0 μg), combined with 1.0 μg of pcDNA5/TO/CpomOrco for co-transfections (CpomOrco + ORs). […] In order to report candidate OR-expressing cells, expression of both fluorescent reporter genes was under the regulation of the same promoter for CpomOR genes (CMV). Transfection DNAs were dissolved in 100 μL sterile DMEM, mixed with 3.0 μL Calfectin (SignaGen, Rockville, MD, USA) following the recommended protocol.
Transfections were conducted overnight. HEK cell media was replaced with 1.0 mL fresh media to incubate cells at 37 °C for up to 6 h, at which point part of the cell culture was spread in the middle of a 35-mm plate as individual cells or small clusters. After 12 h of incubation at 37 °C and 5% CO2, cells were rinsed at the sides with 2.0 mL fresh HEK media. Cells were allowed to recover for at least 1 h prior to calcium imaging.
After incubation, the buffer was removed and cells were rinsed with 4.0 mL fresh HEK Ca^++ Ringer (mM: 140 NaCl, 2.0 CaCl2, 10 HEPES, pH 7.5), and placed on the stage of an inverted microscope (Olympus IX-71, Olympus Corp., Tokyo, Japan) equipped with a cooled CCD camera (ORCA R2, Hamamatsu, Hamamatsu City, Japan). Cells were continuously superfused with Ca^++ Ringer using two gravity fed perfusion contours. The stimulating contour washing the cells (~250 μL/min) was switched rapidly to the stimulus contour using a multi-channel rapid solution changer (RSC-160, Bio-Logic, Claix, France) under the software control of Clampex 9 (Molecular Devices, Sunnyvale, CA, USA).
Fluorescence imaging was performed using Imaging Workbench 6 software (INDEC BioSystems, Santa Clara, CA, USA). Each cell was assigned a region of interest (ROI) and changes in fluorescence intensity within each ROI were measured and expressed as the fractional change in fluorescence intensity (dF) or in some cases as dF/F0 where F0 is the basal fluorescence level before agonist application. […] Continuous traces of multiple responses were compensated for slow drift of the baseline fluorescence when necessary. All recordings were performed at room temperature (22–25 °C).
Compounds were diluted in either DMSO or ethanol (Sigma Aldrich) depending on their solubility properties. […]

CpomOR3 = experiment: Single sensillum recordings, CpomOR3 expressed in Drosophila ab3A OSNs; format: cell-based, Cydia pomonella; conditions: dose loaded in the stimulus cartridge
Text: To perform heterologous expression in D. melanogaster OSNs, CpomORs were amplified using primers in Table 2 and purified PCR products were cloned into the PCR8/GW/TOPO plasmid (Invitrogen) following the recommended protocol. Cassettes with inserts were then transferred from their PCR8/GW/TOPO plasmids to the destination vector (pUASg-HA.attB, constructed by E. Furger and J. Bischof, kindly provided by the Basler group, Zürich), using the Gateway LR Clonase II kit (Invitrogen). The integrity and orientation of inserts was confirmed by sequencing (Sanger sequencer, 3730xl). […]
CpomOR1 and CpomOR6a expressed in at1 OSNs, and CpomOR3 expressed in ab3A OSNs, were tested through single sensillum recordings (SSR). […] The reference electrode was manually inserted in the right eye of the fly, while the recording electrode was manoeuvred with a DC-3K micromanipulator equipped with a PM-10 piezo translator (Märzhäuser Wetzler GmbH, Wetzler, Germany) and inserted at the base of the determined sensilla. Signals coming from the olfactory sensory neurons were amplified 10 times with a probe (INR-02, Syntech, Hilversum, the Netherlands), digitally converted through an IDAC-4-USB (Syntech) interface, and visualized and analysed with the software Autospike v. […]

CpomOrco = CpomOrco (Cydia pomonella, UniProt H9A5M2); experiment: Calcium imaging of HEK293T cells expressing homomeric CpomOrco; format: cell-based; conditions: peak amplitudes normalized to response at 1000 μM agonist, read-out: [A]1/2 half-effective concentration of agonist, calcium response
Experimental: HEK293T cells were grown in HEK cell media [Dulbecco’s modified Eagle’s medium containing 10% fetal bovine serum (MP Biomedicals, Solon, OH, USA), 2.0 mM L-glutamine, and 100 μg/mL Penicillin/Streptomycin (Invitrogen)] at 37 °C and 5% CO2. To test transient expression of CpomORs for calcium imaging or patch-clamp recording experiments, 35-mm petri dishes containing semi-confluent HEK293T cells were transiently transfected. To transfect cells with CpomOrco, we used 1.0 μg of pcDNA5/TO/CpomOrco DNA. In order to promote expression of the OR[51], we used double aliquots for pcDNA5/TO/CpomOR DNAs (2.0 μg), combined with 1.0 μg of pcDNA5/TO/CpomOrco for co-transfections (CpomOrco + ORs). […]
(§1) Fluorescence imaging was performed using Imaging Workbench 6 software (INDEC BioSystems, Santa Clara, CA, USA). Each cell was assigned a region of interest (ROI) and changes in fluorescence intensity within each ROI were measured and expressed as the fractional change in fluorescence intensity (dF) or in some cases as dF/F0 where F0 is the basal fluorescence level before agonist application. […] Continuous traces of multiple responses were compensated for slow drift of the baseline fluorescence when necessary. […]

CpomOrco + OR complexes = experiment: Calcium imaging of HEK293T cells expressing heteromeric CpomOrco + OR complexes; format: cell-based, Cydia pomonella
Experimental: HEK293T cells were grown in HEK cell media [Dulbecco’s modified Eagle’s medium containing 10% fetal bovine serum (MP Biomedicals, Solon, OH, USA), 2.0 mM L-glutamine, and 100 μg/mL Penicillin/Streptomycin (Invitrogen)] at 37 °C and 5% CO2. To test transient expression of CpomORs for calcium imaging or patch-clamp recording experiments, 35-mm petri dishes containing semi-confluent HEK293T cells were transiently transfected. To transfect cells with CpomOrco, we used 1.0 μg of pcDNA5/TO/CpomOrco DNA. In order to promote expression of the OR[51], we used double aliquots for pcDNA5/TO/CpomOR DNAs (2.0 μg), combined with 1.0 μg of pcDNA5/TO/CpomOrco for co-transfections (CpomOrco + ORs). To report expression for calcium imaging experiments, 1.0 μg of a separate plasmid DNA [pEBFP2-Nuc, a gift from Robert Campbell (Addgene plasmid # 14893[52])] carrying the coding sequence for a blue fluorescent protein (BFP) was used. In patch-clamp recordings, 1.0 μg of a separate plasmid DNA (pXOOM, Clontech) carrying the coding sequence for a green fluorescent protein (GFP) was used to report expression. In order to report candidate OR-expressing cells, expression of both fluorescent reporter genes was under the regulation of the same promoter for CpomOR genes (CMV). Transfection DNAs were dissolved in 100 μL sterile DMEM, mixed with 3.0 μL Calfectin (SignaGen, Rockville, MD, USA) following the recommended protocol. To estimate transfection efficiency, a parallel transfection was conducted using the positive control vector pcDNA5/TO/LACZ (Invitrogen) and staining with 0.1% XGal[53]. […]
as §1

| SMILES | LogP [1] | Solubility (M) [1] | also measured |
| --- | --- | --- | --- |
| C=C(C)C1CC=C(C=O)CC1 (centres unmarked) [1,8-p-menthadien-7-al (perillaldehyde), 1,8-p-menthadien-7-al] | 3.053 ± 0.335 |  | Solubility [1]: 6.1 mM (≈ 0.916 mg/mL) |
| CCCCCCCCO [1-octanol] | 2.876±0.177 |  |  |
| CC(C)(C)c1ccc(CCC=O)cc1 [bourgeonal] | 3.486±0.245 | 4,50E-04 M |  |
| C=C(C)[C@@H]1CCC2=CC(=O)C[C@@H](C)[C@]2(C)C1 [(+)-nootkatone] | 3.765±0.275 | 2,40E-04 M |  |
| C/C=C/c1ccc2c(c1)OCO2 [isosafrol] | 3.904±0.349 | 5,90E-04 M |  |
| CCCCC/C=C\C=C\C(=O)OC [(E,Z)-MD, methyl (E,Z)-2,4-decadienoate] |  |  | amplitude of the calcium response (mean of the maximum response ± SEM) (CpomOrco + OR3; 500 μM, n = 151): 10.40 ± 5.91 dF; EC50 (CpomOrco + OR3; calcium response normalized to 250 μM VUAA3): 1080 ± 113 µM; minimum dose to elicit a response significantly different from the solvent (CpomOR3): 10 µg |
| O=C1CCCCC1 [cyclohexanone] | 0.821±0.251 |  | Solubility [1]: 150 mM (≈ 14.7 mg/mL) |
| COc1cc(C=O)ccc1O [vanillin] |  | 0,024 M |  |
| CC(C)=CCC/C(C)=C/CO [geraniol] | 2.942±0.271 |  |  |
| CC(=O)CCC=C(C)C [6-methyl-5-hepten-2-one] | 1.947±0.238 |  | Solubility [1]: 52 mM (≈ 6.56 mg/mL) |
| CCc1ccc(NC(=O)CSc2nnc(-c3cccnc3)n2CC)cc1 [VUAA1, acetamide,N-(4-ethylphenyl)-2-[[4-ethyl-5-(3-pyridinyl)-4H-1,2,4-triazol-3-yl]thio]-] |  |  | EC50 (CpomOrco): ~520 µM; EC50 (CpomOrco + OR complexes; heteromeric complexes, peak amplitudes normalized to response at 1000 μM agonist, read-out: [A]1/2 half-effective concentration of agonist, calcium response): ~150 µM |
| CC(C)CN(C)c1nc(N)c(C(=O)N=C(N)N)nc1Cl [MIA, 5-(N-methyl-N-isobutyl) amiloride] |  |  | block of the VUAA3 activated calcium signal (CpomOrco + OR complexes; MIA 100 μM applied extracellularly, all heteromeric complexes, only partially reversible): almost completely blocked |
| NCCc1ccccc1 [phenylethylamine] | 1.435±0.189 | 0,085 M |  |
| CCCCCO [1-pentanol] | 1.348±0.176 | 0,24 M |  |
| CCCc1ccc(O)c(OC)c1 [dihydro eugenol, 2-methoxy-4-propylphenol] | 2.943±0.224 | 6,00E-03 M |  |
| C=CCc1ccc(O)c(OC)c1 [eugenol] | 2.403±0.236 |  |  |
| CC(C=O)Cc1ccc2c(c1)OCO2 (centres unmarked) [helional] | 1.982±0.343 |  |  |
| C=CCc1ccc(OC)cc1 [4-Allylanisole] | 3.088±0.223 |  |  |
| CC(C)c1ccc(O)cc1 [4-isopropyl phenol] | 2.986±0.200 | 0,015 M |  |
| CC/C=C\CCO [(Z)-3-hexenol] |  |  | Solubility [1]: 140 mM (≈ 14 mg/mL) |
| C=CCc1ccc(OC)c(OC)c1 [methyl eugenol] | 2.655±0.243 |  |  |
| CCCCCCCOC(=O)CCC [heptyl butyrate] | 4.352±0.206 |  |  |
| CC(C)CCO [3-methyl-1-butanol] | 1.192±0.187 | 0,34 M |  |
| CCC/C=C/C=O [(E)-2-hexenal] | 1.790±0.281 | 0,09 M |  |
| COCc1ccccc1 [benzyl methyl ether] | 1.843±0.239 | 0,05 M |  |
